Source: patent publication US20250316381A1, “Assessment of Relative Quantitative Effect of Somatic Point Mutations at the Individual Tumor Level for Prioritization” (Hadasit Medical Research Services and Development Ltd., priority 2022, published 2025)

Experiments:
[1] = tested on: human cancer cell lines; experiment: GDSC2 IC50 drug screening of cancer cell lines, divided by cancer gene TVA sub-groups; assay type: cell-based; settings: except for two cell lines in "Strong Drivers" group
From the text: Bulk data of “IC50s Drug Screening” was obtained from Genomics of Drug Sensitivity in Cancer website. Bulk mutation data for cell lines was obtained from Cell Model Passports website.
The analysis was focused on pairs of drugs and genetic alterations that met the following criteria in GDSC's database: (i) drug response associated with a cancer gene variant (ii) at least 50 cell lines harboring the cancer gene alteration (iii) effect size above 0.7 (above 0.5 indicates a moderate effect size and above 1 indicates a large effect size) (iv) drug-gene association is statistically significant (false discovery rate (FDR) p-value<0.1) and (v) the drug effect on the mutated protein of associated pathways can explain the association.
For comparison of response to drugs between genes variants' TVA values, samples were binned according to their gene variant TVA score and according to appearance in the drivers' binomial catalogue. Non-drivers were defined as variants absent from the binomial catalogue with TVA≤1.5. This larger TVA value for variants not in the catalog enlarges the number of variants in the non-driver group. […]
Rare pathogenic variants are becoming important in the inter-individual variability in drug response. […] Genomic features and drug response associations were analyzed from GDCS's analysis of variance model that met certain criteria (see Materials and Methods). […]

[2] = tested on: human cancer cell lines; settings: GDSC2; BRAF variants, "Very Strong Drivers" group (includes V600E class I variant) versus all other groups; cited from earlier work

| Structure (SMILES) | association of TVA's sub-groups of BRAF variants with drug response [1] | IC50 of cancer cell lines [2] |
| --- | --- | --- |
| CC(C)(C)c1nc(-c2cccc(NS(=O)(=O)c3c(F)cccc3F)c2F)c(-c2ccnc(N)n2)s1 [Dabrafenib] | associated with drug response | – |
| CCCS(=O)(=O)Nc1ccc(F)c(C(=O)c2c[nH]c3ncc(Cl)cc23)c1F [PLX4720] | – | distinct low IC50 |
